How the values were obtained:
Experiment in all cases: biochemical
Type in all cases: binding
[1] = molecular target: panel of 468 diverse kinases (Homo sapiens, UniProt O14578); conditions: CIT; 1000 nM; read-out: Percent Control
[2] = molecular target: panel of 468 diverse kinases (Homo sapiens, UniProt O43353); conditions: RIPK2; 1000 nM; read-out: Percent Control
[3] = molecular target: panel of 468 diverse kinases (Homo sapiens, UniProt O96017); conditions: CHEK2; 1000 nM; read-out: Percent Control
[4] = molecular target: panel of 468 diverse kinases (Homo sapiens, UniProt P00519, E255K); conditions: ABL1(E255K)-phosphorylated; 1000 nM; read-out: Percent Control
[5] = molecular target: panel of 468 diverse kinases (Homo sapiens, UniProt P00533, L858R); conditions: EGFR(L858R); 1000 nM; read-out: Percent Control
[6] = molecular target: panel of 468 diverse kinases (Homo sapiens, UniProt P10721, V559D/V654A); conditions: KIT(V559D,V654A); 1000 nM; read-out: Percent Control
[7] = molecular target: panel of 468 diverse kinases (Homo sapiens, UniProt P16234); conditions: PDGFRA; 1000 nM; read-out: Percent Control
[8] = molecular target: panel of 468 diverse kinases (Homo sapiens, UniProt P17612); conditions: PKAC-alpha; 1000 nM; read-out: Percent Control
[9] = molecular target: panel of 468 diverse kinases (Homo sapiens, UniProt P29322); conditions: EPHA8; 1000 nM; read-out: Percent Control
[10] = molecular target: panel of 468 diverse kinases (Homo sapiens, UniProt P37023); conditions: ACVRL1; 1000 nM; read-out: Percent Control
[11] = molecular target: panel of 468 diverse kinases (Homo sapiens, UniProt P43403); conditions: ZAP70; 1000 nM; read-out: Percent Control
[12] = molecular target: panel of 468 diverse kinases (Homo sapiens, UniProt P49137); conditions: MAPKAPK2; 1000 nM; read-out: Percent Control
[13] = molecular target: panel of 468 diverse kinases (Homo sapiens, UniProt P49761); conditions: CLK3; 1000 nM; read-out: Percent Control
[14] = molecular target: panel of 468 diverse kinases (Homo sapiens, UniProt P53778); conditions: p38-gamma; 1000 nM; read-out: Percent Control
[15] = molecular target: panel of 468 diverse kinases (Homo sapiens, UniProt P54764); conditions: EPHA4; 1000 nM; read-out: Percent Control
[16] = molecular target: panel of 468 diverse kinases (Homo sapiens, UniProt Q02779); conditions: MLK2; 1000 nM; read-out: Percent Control
[17] = molecular target: panel of 468 diverse kinases (Homo sapiens, UniProt Q04759); conditions: PRKCQ; 1000 nM; read-out: Percent Control
[18] = molecular target: panel of 468 diverse kinases (Homo sapiens, UniProt Q13464); conditions: ROCK1; 1000 nM; read-out: Percent Control
[19] = molecular target: panel of 468 diverse kinases (Homo sapiens, UniProt Q13705); conditions: ACVR2B; 1000 nM; read-out: Percent Control
[20] = molecular target: panel of 468 diverse kinases (Homo sapiens, UniProt Q13976); conditions: PRKG1; 1000 nM; read-out: Percent Control
[21] = molecular target: panel of 468 diverse kinases (Homo sapiens, UniProt Q6P2M8); conditions: CAMK1B; 1000 nM; read-out: Percent Control
[22] = molecular target: panel of 468 diverse kinases (Homo sapiens, UniProt Q86UE8); conditions: TLK2; 1000 nM; read-out: Percent Control
[23] = molecular target: panel of 468 diverse kinases (Homo sapiens, UniProt Q86YV6); conditions: MYLK4; 1000 nM; read-out: Percent Control
[24] = molecular target: panel of 468 diverse kinases (Homo sapiens, UniProt Q8IYT8); conditions: ULK2; 1000 nM; read-out: Percent Control
[25] = molecular target: panel of 468 diverse kinases (Homo sapiens, UniProt Q96J92); conditions: WNK4; 1000 nM; read-out: Percent Control
[26] = molecular target: panel of 468 diverse kinases (Homo sapiens, UniProt Q99683); conditions: ASK1; 1000 nM; read-out: Percent Control
[27] = molecular target: panel of 468 diverse kinases (Homo sapiens, UniProt Q9BQI3); conditions: EIF2AK1; 1000 nM; read-out: Percent Control
[28] = molecular target: panel of 468 diverse kinases (Homo sapiens, UniProt Q9H1R3); conditions: MYLK2; 1000 nM; read-out: Percent Control
[29] = molecular target: panel of 468 diverse kinases (Homo sapiens, UniProt Q9NSY1); conditions: BIKE; 1000 nM; read-out: Percent Control
[30] = molecular target: panel of 468 diverse kinases (Homo sapiens, UniProt Q9NWZ3); conditions: IRAK4; 1000 nM; read-out: Percent Control
[31] = molecular target: panel of 468 diverse kinases (Homo sapiens, UniProt Q9Y3S1); conditions: WNK2; 1000 nM; read-out: Percent Control

Sequence of panel of 468 diverse kinases (Homo sapiens, UniProt Q13464) (Q13464 2-1354 limits assumed): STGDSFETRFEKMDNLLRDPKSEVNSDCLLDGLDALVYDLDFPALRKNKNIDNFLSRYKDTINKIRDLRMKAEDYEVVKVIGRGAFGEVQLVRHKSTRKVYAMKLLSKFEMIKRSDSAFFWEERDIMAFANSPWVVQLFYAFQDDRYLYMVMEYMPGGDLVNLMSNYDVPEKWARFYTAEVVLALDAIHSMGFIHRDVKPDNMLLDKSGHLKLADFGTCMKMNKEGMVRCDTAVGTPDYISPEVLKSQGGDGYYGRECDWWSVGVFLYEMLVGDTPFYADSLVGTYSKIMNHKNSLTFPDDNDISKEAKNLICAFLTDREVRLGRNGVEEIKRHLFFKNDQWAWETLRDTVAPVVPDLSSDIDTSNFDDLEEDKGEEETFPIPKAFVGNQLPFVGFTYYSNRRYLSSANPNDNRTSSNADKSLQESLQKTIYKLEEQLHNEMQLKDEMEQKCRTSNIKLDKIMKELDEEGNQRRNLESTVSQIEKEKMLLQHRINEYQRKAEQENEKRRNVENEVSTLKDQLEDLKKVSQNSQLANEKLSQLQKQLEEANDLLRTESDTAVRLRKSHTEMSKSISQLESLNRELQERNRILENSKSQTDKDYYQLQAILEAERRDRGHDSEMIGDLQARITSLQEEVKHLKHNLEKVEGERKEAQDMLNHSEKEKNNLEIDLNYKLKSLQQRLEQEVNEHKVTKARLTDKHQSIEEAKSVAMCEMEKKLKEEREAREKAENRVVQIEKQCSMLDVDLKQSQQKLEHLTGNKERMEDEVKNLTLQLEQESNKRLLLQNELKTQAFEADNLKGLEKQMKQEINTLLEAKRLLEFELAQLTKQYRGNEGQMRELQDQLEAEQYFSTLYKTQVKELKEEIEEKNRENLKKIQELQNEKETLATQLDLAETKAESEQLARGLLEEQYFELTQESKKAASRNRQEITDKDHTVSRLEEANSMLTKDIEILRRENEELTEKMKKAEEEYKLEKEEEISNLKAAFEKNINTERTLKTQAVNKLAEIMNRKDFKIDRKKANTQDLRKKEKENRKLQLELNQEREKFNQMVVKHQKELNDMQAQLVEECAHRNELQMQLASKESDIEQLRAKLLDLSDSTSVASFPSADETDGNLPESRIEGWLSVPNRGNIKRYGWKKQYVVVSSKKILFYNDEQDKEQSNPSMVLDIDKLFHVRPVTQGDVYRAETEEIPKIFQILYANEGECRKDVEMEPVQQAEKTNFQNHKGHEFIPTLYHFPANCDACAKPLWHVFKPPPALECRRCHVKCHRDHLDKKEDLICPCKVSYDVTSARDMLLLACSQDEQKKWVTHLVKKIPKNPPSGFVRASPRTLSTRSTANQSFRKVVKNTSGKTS
Sequence of panel of 468 diverse kinases (Homo sapiens, UniProt Q13976) (Q13976 2-671 limits assumed): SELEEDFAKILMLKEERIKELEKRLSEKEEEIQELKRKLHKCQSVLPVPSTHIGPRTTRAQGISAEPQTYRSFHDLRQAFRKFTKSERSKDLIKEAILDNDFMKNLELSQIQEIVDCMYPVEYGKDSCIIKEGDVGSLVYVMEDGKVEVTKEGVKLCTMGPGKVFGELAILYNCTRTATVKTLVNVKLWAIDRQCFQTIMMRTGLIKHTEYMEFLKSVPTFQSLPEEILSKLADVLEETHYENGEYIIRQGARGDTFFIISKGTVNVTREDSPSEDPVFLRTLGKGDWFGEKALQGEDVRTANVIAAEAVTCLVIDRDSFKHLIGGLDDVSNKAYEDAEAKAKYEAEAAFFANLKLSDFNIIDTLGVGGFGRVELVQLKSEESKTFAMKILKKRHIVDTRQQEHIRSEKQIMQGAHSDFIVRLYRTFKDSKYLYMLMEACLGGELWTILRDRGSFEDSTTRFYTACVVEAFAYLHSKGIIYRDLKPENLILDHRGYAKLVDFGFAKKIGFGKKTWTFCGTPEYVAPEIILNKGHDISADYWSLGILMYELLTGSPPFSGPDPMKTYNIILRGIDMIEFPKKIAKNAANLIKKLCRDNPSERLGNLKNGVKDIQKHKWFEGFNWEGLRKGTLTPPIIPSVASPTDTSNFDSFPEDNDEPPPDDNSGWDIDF
Sequence of panel of 468 diverse kinases (Homo sapiens, UniProt P00533, L858R) (P00533 25-1210 L858R limits assumed): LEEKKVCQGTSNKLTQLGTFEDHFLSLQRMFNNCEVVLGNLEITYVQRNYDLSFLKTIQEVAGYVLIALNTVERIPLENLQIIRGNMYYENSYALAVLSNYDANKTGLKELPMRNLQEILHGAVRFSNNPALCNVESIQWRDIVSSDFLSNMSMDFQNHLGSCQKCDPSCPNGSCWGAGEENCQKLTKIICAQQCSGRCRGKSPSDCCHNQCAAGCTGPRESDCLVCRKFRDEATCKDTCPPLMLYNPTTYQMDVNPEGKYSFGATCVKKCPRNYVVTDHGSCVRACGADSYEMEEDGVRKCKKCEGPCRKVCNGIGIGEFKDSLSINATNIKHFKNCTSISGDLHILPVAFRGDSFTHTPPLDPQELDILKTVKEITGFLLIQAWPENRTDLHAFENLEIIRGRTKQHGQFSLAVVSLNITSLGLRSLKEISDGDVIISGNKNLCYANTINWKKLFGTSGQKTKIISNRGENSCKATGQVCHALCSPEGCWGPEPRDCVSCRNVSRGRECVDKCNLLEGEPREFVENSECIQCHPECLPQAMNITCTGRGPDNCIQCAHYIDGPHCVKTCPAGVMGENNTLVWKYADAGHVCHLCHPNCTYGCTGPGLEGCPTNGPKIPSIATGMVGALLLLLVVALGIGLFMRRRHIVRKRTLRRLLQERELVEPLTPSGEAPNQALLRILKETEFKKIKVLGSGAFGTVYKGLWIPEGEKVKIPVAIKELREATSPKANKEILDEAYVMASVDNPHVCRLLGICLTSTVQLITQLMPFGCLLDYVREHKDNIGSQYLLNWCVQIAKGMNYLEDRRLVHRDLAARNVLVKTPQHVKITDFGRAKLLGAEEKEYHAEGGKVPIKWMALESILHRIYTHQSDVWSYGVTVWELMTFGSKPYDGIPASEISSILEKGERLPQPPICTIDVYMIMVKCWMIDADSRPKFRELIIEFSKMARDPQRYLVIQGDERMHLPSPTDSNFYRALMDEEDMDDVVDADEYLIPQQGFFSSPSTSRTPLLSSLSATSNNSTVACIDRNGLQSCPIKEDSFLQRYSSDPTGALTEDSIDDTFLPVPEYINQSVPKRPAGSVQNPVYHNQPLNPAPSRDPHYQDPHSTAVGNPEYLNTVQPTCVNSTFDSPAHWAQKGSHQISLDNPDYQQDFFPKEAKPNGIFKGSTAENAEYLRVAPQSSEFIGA
Sequence of panel of 468 diverse kinases (Homo sapiens, UniProt Q9H1R3) (Q9H1R3 2-596 limits assumed): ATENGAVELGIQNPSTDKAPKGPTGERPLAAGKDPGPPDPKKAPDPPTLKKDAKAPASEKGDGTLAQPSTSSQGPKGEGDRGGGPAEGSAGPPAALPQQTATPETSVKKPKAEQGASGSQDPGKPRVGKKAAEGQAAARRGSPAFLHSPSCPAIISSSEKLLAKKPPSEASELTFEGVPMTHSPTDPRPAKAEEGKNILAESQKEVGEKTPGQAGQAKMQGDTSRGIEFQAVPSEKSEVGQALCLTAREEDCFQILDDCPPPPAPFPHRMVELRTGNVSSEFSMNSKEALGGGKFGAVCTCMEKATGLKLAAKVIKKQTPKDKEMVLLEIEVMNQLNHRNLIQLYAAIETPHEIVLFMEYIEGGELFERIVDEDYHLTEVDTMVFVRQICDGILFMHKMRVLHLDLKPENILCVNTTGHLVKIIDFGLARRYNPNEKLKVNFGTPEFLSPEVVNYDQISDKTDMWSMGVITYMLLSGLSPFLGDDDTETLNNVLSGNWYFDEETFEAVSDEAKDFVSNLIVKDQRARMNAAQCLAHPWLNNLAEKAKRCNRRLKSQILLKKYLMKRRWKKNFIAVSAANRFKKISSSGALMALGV
Sequence of panel of 468 diverse kinases (Homo sapiens, UniProt P37023) (P37023 22-503 limits assumed): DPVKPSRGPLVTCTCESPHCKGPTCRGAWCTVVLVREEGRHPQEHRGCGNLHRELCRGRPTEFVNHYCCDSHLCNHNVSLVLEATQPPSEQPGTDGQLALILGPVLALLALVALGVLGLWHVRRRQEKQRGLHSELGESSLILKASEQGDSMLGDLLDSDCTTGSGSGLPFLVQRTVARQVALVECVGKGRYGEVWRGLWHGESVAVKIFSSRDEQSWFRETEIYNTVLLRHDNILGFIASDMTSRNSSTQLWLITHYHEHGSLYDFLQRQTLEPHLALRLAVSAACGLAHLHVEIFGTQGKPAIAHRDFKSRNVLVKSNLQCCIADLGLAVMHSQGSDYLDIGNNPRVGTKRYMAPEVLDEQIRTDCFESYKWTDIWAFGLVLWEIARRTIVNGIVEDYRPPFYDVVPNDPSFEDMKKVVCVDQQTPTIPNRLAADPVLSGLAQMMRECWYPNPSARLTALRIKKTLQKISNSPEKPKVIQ
Sequence of panel of 468 diverse kinases (Homo sapiens, UniProt Q13705) (Q13705 19-512 limits assumed): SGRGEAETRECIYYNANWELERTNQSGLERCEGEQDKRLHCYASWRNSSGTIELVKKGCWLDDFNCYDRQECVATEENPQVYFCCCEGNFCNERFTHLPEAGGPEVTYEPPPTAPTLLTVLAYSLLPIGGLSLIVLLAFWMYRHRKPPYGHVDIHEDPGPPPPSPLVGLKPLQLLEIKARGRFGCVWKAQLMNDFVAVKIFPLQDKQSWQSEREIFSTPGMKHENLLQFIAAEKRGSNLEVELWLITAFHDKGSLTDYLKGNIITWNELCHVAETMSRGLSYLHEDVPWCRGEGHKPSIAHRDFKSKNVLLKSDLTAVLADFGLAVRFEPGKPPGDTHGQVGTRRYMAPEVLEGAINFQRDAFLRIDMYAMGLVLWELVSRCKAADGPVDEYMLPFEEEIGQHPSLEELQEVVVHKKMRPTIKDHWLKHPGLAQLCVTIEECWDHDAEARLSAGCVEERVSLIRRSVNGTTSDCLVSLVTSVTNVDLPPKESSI

## COc1cc2nc(NC3CC3)nc(NC3CCN(C(C)C)CC3)c2cc1OC [Formula IV]
[1]
  remaining activity at 1 µM: 100%
[2]
  remaining activity at 1 µM: 94%
[3]
  remaining activity at 1 µM: 100%
[4]
  remaining activity at 1 µM: 89%
[5]
  remaining activity at 1 µM: 99%
[6]
  remaining activity at 1 µM: 76%
[7]
  remaining activity at 1 µM: 75%
[8]
  remaining activity at 1 µM: 85%
[9]
  remaining activity at 1 µM: 93%
[10]
  remaining activity at 1 µM: 99%
[11]
  remaining activity at 1 µM: 91%
[12]
  remaining activity at 1 µM: 100%
[13]
  remaining activity at 1 µM: 91%
[14]
  remaining activity at 1 µM: 78%
[15]
  remaining activity at 1 µM: 100%
[16]
  remaining activity at 1 µM: 95%
[17]
  remaining activity at 1 µM: 86%
[18]
  remaining activity at 1 µM: 45%
[19]
  remaining activity at 1 µM: 76%
[20]
  remaining activity at 1 µM: 64%
[21]
  remaining activity at 1 µM: 59%
[22]
  remaining activity at 1 µM: 100%
[23]
  remaining activity at 1 µM: 93%
[24]
  remaining activity at 1 µM: 59%
[25]
  remaining activity at 1 µM: 70%
[26]
  remaining activity at 1 µM: 75%
[27]
  remaining activity at 1 µM: 73%
[28]
  remaining activity at 1 µM: 96%
[29]
  remaining activity at 1 µM: 100%
[30]
  remaining activity at 1 µM: 78%
[31]
  remaining activity at 1 µM: 58%

Reference: US11542240B2, “STK19 inhibitors for treatment of cancer” (TRUSTEES OF BOSTON UNIVERSITY, priority 2018, dated 2023)
